Consider 1 molecule from patent US4201784A, “Substituted 2-[2'-(5"-nitrofuryl-2")vinyl-and 4'-(5"-nitrofuryl-2"-1,3-butadieryl]quinoline-4-carboxylic acid amides and salts thereof” (Institut Organicheskogo Sinteza Akademii Nauk Latviiskoi SSR, priority 1977, dated 1980).

Read-outs that look alike come from different tables or passages of the source.

One series relates to Lewis lung carcinoma. In words: Antitumor / antimetastatic activity, Lewis lung carcinoma. The format is in vivo, mice. The protocol: (§1) Apart from the tests on Ehrlich ascitic tumor, giniquine was studied on twelve more inoculated tumors. Seven tumors (melanoma B16, sarcoma AK, large intestine carcinoma acatol-1, sarcoma 180, adenocarcinoma 755, Lewis lung carcinoma and sarcoma 37) were inoculated subcutaneously with 50 mg of tumoral cells per mouse. Four tumors (lymphatic leukemies L 5178, L 5178Y, L 1210 and P-388) were inoculated intraperitoneally with 10^6 cells per mouse. One tumor (La, hemocytoblastosis) was inoculated intraperitoneally by injecting 50 mg of cell suspension of spleen and liver of mice suffering La hemocytoblastosis, per mouse. Giniquine was injected intraperitoneally five times for seven days: 1,2,3,4,7 days or 3,4,5,6,7 days after the implantation of tumor. The rate of deceleration of the tumor growth was established 14 days after the ultimate injection of giniquine; life of test animals was recorded for 60 days.

Series [1] has as its system lymphatic leukemia L 5178Y. Put plainly: Antitumor activity, lymphatic leukemia L 5178Y. The format is in vivo, mice. The protocol:
as §1

A short description of a further series: LD50, intact mice. The note with it: mouse, in vivo, ip, intraperitoneal.
The subject of series [2] is cells of Ehrlich ascitic tumor. In words: In vitro incorporation of labeled precursors into DNA, RNA and protein of Ehrlich ascitic tumor cells. The format is cell-based, mice. The note with it: for activity at 100 µM: 1 h, 1.10^-4 M. The protocol: The effect of giniquine on biosynthesis of molecules in the in vitro tests was studied with suspensions of cells of Ehrlich ascitic tumor. The tests were conducted with common white mice of a mass of 18-20 g. Ascites was taken 7-8 days after the inoculation, dissolved with a cool Eagle medium (pH 7.4) containing 0.1% of heparin, and the cells were precipitated by centrifuging at 600 g. The cells were washed twice with the same medium, and a 10% suspension of the cells in the Eagle medium was prepared.
The effect of giniquine on biosynthesis of DNA, RNA and protein in the cells of Ehrlich ascitic tumor was assessed on the basis of incorporation of cells of specific labeled precursors into acid-insoluble fraction: 2-^14 C-thymidine, 2-^14 C-uridine and 2-^14 C-leucine, respectively.
The incubating medium contained, in a total volume of 2 ml, 100 mg of tumoral cells in the form of suspension, Eagle medium (pH 7.4), giniquine in a concentration of 1.10^-4 m and labeled precursors of nucleic acids and protein with a radioactivity corresponding to 0.1 μc. Control samples contained a corresponding volume of distilled water to replace the preparation solution.
The incubation was conducted in Warburg apparatus vessels at 37° C. for one hour. After the incubation, tumoral cells were fixed by adding cool 10% trichloracetic acid to the incubating medium (1:1). Concurrently a control sample without incubation was prepared, to which, before adding the cell suspension, was added 10% trichloracetic acid in the same ratio.
The precipitated cells were extracted for 20 minutes at 0° C. with 5% trichloroacetic acid. The samples were then filtered through millipore filters (HUFS, pore diameter 0.4 μ). The precipitate on the filter was washed twice with 5 ml of cool 5% trichloracetic acid and once with 5 ml of toluene. The filters were dried in the air and transferred into quartz flasks containing 10 ml of toluene scintillator. The radioactivity was determined by means of a liquid scintillation counter. The results were expressed in percent of the control.
It will be apparent from the Table that under the action of giniquine in a concentration of 1.10^-4 M the incorporation of labeled precursors of DNA, RNA and protein in acid-insoluble fraction of cells of Ehrlich ascitic tumor is disturbed compared to the control. […] The results of in vitro experiments study of the effect of 0.3 and 0.1% solutions of giniquine on the incorporation of 2-^14 C-thymidine in the acid-insoluble fraction (DNA) of Erlich cells are presented in Table 6.

For the next series, the system named is tumor cells. Put plainly: Antiblastic activity and selectivity of action on tumor cells (general statement).
Where [3] appears, read: BDF1 female mice, intraperitoneal, days 1,2,3,4,7, optimum daily dose 6.0 mg/kg.

Turning to `CCN(CC)CCCC(C)NC(=O)c1cc(C=Cc2ccc([N+](=O)[O-])o2)nc2ccccc12` (stereo not drawn) [giniquine, 2-[2'-(5"-nitrofuryl-2")vinyl]quinoline-4-carboxylic acid (α-methyl-δ-diethylaminobutyl)amide triphosphate], the Max. life prolong. with Lewis lung carcinoma (setting [3]) is 15%; in series [1] (setting [3]) it was 5%. In addition, the “antimetastatic activity / sensitivity (in words)” value in the series with Lewis lung carcinoma (Lewis lung carcinoma) is “practically insensitive”. Moreover, in series [1] (L-5178Y), the “sensitivity (in words)” value was “practically insensitive”. The LD50 (in general, the dose expected to kill half of the subjects tested) in the series “LD50, intact mice” (single injection, female) came out at 33 mg/kg; in “LD50, intact mice” (single injection, male), 30 mg/kg; in “LD50, intact mice” (ten injections, female), 8 mg/kg; in the series “LD50, intact mice” (ten injections, male), 7.3 mg/kg. The “Incorporation of 2-^14 C-thymidine in DNA in % of control” value in series [2] (0.1% solution) was 2.4 % of control. Moreover, in series [2] (0.3% solution), the “suppression of biosynthesis of DNA in tumor cells (in words)” value is “practically complete suppression”. The activity at 100 µM in series [2] (Mus musculus, Ehrlich, read-out: Incorporation of 2-^14 C-leucine in percent of control) is 86%; in series [2] (Mus musculus, Ehrlich, read-out: Incorporation of 2-^14 C-thymidine in percent of control) it was 61%; in series [2] (Mus musculus, Ehrlich, read-out: Incorporation of 2-^14 C-uridine in percent of control), 52%. Further, the activity at 0.1 % in series [2] (Mus musculus, Ehrlich, 0.1% solution, read-out: Incorporation of 2-^14 C-thymidine in DNA in % of control) amounted to 2.4%. For the same molecule, the activity at 0.3 % in series [2] (Mus musculus, Ehrlich, 0.3% solution, read-out: Incorporation of 2-^14 C-thymidine in DNA in % of control) stood at 0.7%. The “incorporation of labeled precursors in DNA, RNA and protein (in words)” value in series [2] (in vitro) was “decelerates the incorporation of labeled precursors in DNA, RNA and protein”. The “antiblastic / antitumoral activity” value with tumor cells is recorded as “highly active antitumoral preparation”. Further, in the series with tumor cells, the “selective (contact) action on tumor cells” value is “selective action on tumor cells”.
